Reference: patent US20170189419A1, “PHARMACEUTICAL COMPOSITION FOR TREATING PROSTATE CANCER” (MA SHEN KAI RUEI CO., LTD., priority 2015, published 2017)

Tests used:
[1] = system: human prostate-cancer cells PC3; assay: MTT survival assay, PC3 prostate cancer cells; type: cell-based; conditions: for half-maximal inhibitory concentration (IC50): PC3 cells; for survival rate / growth of prostate cancer cell: PC-3 cells, compound isolated from Extraction A
Excerpt: (§1) According to the present invention, the effects such as treating Prostate cancer, inhibiting the growth of Prostate cancer cell and others, of Antroquinonol B (AnQB) and/or Anctin K (AnK) may be tested by using any of the test methods used in the prior arts, for example, MTT assay of using 3-(4, 5-dimethylthiazol-2-yl)-2, S-diphenyl tetrazolium bromide (MTT) to determine cell survival rates of Prostate cancer cell lines.
(§2) The Antroquinonol B (AnQB) and Anctin K (AnK) separately isolated from the Extraction A of Example 1 were added into the culture media of human prostate-cancer cells, PC3 or DU-145, to test for tumor cell survival by using anti-cancer drug screen model. This survival assay was carried out with the widely known MTT (3-[4,5-dimethylthiazol-2-yl]2,5-diphenyltetrazolium bromide) assay.
(§3) The human prostate cancer cell lines, PC-3 and DU-145 were cultivated in media containing fetal calf serum for 18 hours. The proliferated cells were washed once with PBS, then treated with 1× trypsin-EDTA and centrifuged at 2500 rpm for […]. The supernatant was discarded and the cell pellet was re-suspended in 200 ml of fresh culture medium by gently shaking. The cells were placed in a 96-well plate.
(§4) Subsequently, the plates were read on an ELISA reader to determine the survival rates. The half maximal inhibitory concentration (IC50) values were calculated and results of ex vivo survival assay were thus obtained.
(§5) By using the same manner as the method described above, respectively human Prostate cancer cell line PC-3 and DU-145 was cultured. After then, the pharmaceutical compositions A˜F of the present invention was applied separately, and then MTT assay for each sample was measured to assess the inhibition effectiveness of various cancer cell activity while using pharmaceutical compositions A˜F of the present invention.

[2] = system: human prostate-cancer cells DU-145; assay: MTT survival assay, DU-145 prostate cancer cells; type: cell-based; conditions: DU-145 cells; for survival rate / growth of prostate cancer cell: compound isolated from Extraction A
Excerpt: as §1, §2, §3, §4, §5

Structure (SMILES)	half-maximal inhibitory concentration (IC50) [1]	survival rate / growth of prostate cancer cell [1]	half-maximal inhibitory concentration (IC50) [2]	survival rate / growth of prostate cancer cell [2]
C=C(CC[C@@H](C(=O)O)[C@H]1CC[C@@]2(C)C3=CC[C@H]4C(C)(C)[C@@H](O)CC[C@]4(C)C3=CC[C@]12C)C(C)C [Anctin K]	relatively low	can inhibit the growth	relatively low	can inhibit the growth
COC1=C(OC)[C@H](O)[C@H](C/C=C(\C)CC/C=C(/C)C/C=C/C(C)(C)O)[C@@H](C)C1=O [Antroquinonol B]	relatively low	can inhibit the growth	relatively low	can inhibit the growth
